Test results taken from patent US9125406B2, “Methods and compositions for control of cabbage looper, trichoplusia ni” (Simon Fraser University, priority 2008, dated 2015).
Read-outs that look alike come from different tables or passages of the source.

Key:
[1] = test system: third instar T. ni larvae; experiment: Leaf disk choice feeding deterrence bioassay; format: in vivo, Trichoplusia ni; details: for pest or weed control at 50 µg/cm2, 50 µg/cm2 / pest or weed control at 50 µg/cm2: Trichoplusia, foliar; for Feeding deterrency: Table 6 summary class; for pest or weed control at 50 µg/cm2: feeding deterrence (FD), Table 12, non-toxic feeding deterrents, read-out: % deterrence; for DC50: feeding deterrence DC50, unit not given in Table 12
Source text: Cabbage plants (Brassica oleraceae var. Stonehead) used in the bioassays were routinely grown in plastic pots with a mixture of sandy loam soil and peat moss (4:1) in a greenhouse at the University of British Columbia, Vancouver, BC, Canada. Leaves were collected from cabbage plants that were 5-6 weeks old.
T. ni larvae and moths were obtained from a long established colony (>50 generations) maintained on an artificial diet, Velvetbean Caterpillar Diet No. F9796 [Bio-Sery Inc. (Frenchtown, NIL)] in the insectary of the University of British Columbia (UBC).
(§1) Initial screening for feeding deterrent effects was conducted at 50 μg/cm^2 in feeding deterrent bioassays.
Larvae were given the choice of feeding on two leaf disks, one treated with 10 μL of a solution of the test substance painted on each side and the other treated with a carrier solvent alone. The number of larvae was 25 per treatment.
Feeding deterrence data (percent) for initial screening concentration were analyzed by analysis of variance (ANOVA) after arcsin transformation using statistics software (Statistix 7. Analytical Software, Statistix 7 for Windows 95, 98, NT, 2000. Analytical Software, Tallahassee).

[2] = test system: third instar T. ni larvae; experiment: whole plant or invertebrate; details: for mortality at 0.25 %: Trichoplusia, topical, 24 h; for % mortality: contact toxicity to larvae, negative or zero values replaced by 0.1 for the index (footnote b)
Procedure: as §1
Mortality was determined 24 h after spraying larvae directly with test solutions. Third instar T. ni larvae were sprayed in 90 mm×15 mm Petri dishes (Falcon) lined with Fisher Scientific filter paper (90 mm diameter). Small plastic hand spraying bottles (50 mL capacity) were used. Larvae were then transferred to Petri dishes (90 mm×15 mm) with a small piece of artificial diet. Each Petri dish contained 10 larvae. Three replicates, each consisting of 10 larvae, were used per treatment.

T. ni moths [3] = experiment: Oviposition choice (deterrence) bioassay on cabbage leaves; format: in vivo, Trichoplusia ni; details: Trichoplusia, 48 h, Table 7, second lots and purified isomers; at 0.25%; read-out: OD (%) Mean ± SE N = 35-40
T. ni moths [4] = experiment: as above; format: in vivo, Trichoplusia ni; details: for pest or weed control at 0.25 %: Trichoplusia, 48 h, oviposition deterrence at 0.25%, read-out: OD (%), mean ± SE (n = 25-33); for Oviposition deterrency: Table 6 summary class, 0.25%
Procedure: as §1
T. ni larvae were reared on normal diet from neonates (<24 h old) until pupation. Pupae were sexed and put in separate plastic containers until emergence. After eclosion, pairs of moths (one male and one female) were introduced into each cage with a control and a treated cabbage leaf. Pairs of moths (n=25) were used per treatment. Each leaf (approximately 100-110 cm^2) was sprayed with 0.5 mL of MeOH or a methanolic solution of the test chemical on each side. Eggs were counted on each cabbage leaf after 48 h.

[5] = Table 5, 1,2-dialkoxybenzenes, feeding deterrence at 50 μg/cm^2, read-out: FD (%), mean ± SE (n = 25)
[6] = Table 4, 1,3-dialkoxybenzenes, feeding deterrence at 50 μg/cm^2, read-out: FD (%), mean (SE (n = 25))
[7] = Table 7, second lots and purified isomers, 50 μg/cm^2, read-out: F.D (%) Mean ± SE N = 25
[8] = Table 3, 1,4-dialkoxybenzenes, feeding deterrence at 50 μg/cm^2, read-out: FD (%), mean ± SE (n = 25)
[9] = read-out: mortality (%) (n = 3 × 10), Table 3

`CCCOc1ccccc1O` [2a{3}, 2-Propoxy phenol] showed a pest or weed control at 50 µg/cm2, 50 µg/cm2 [1, 5] of -12 ± 20%.
`COc1cccc(O)c1` [2b{1}, 3-Methoxy phenol] gave a pest or weed control at 50 µg/cm2, 50 µg/cm2 [1, 6] of 44.7 ± 17.5%.
`C=CCc1c(OCC)cccc1OCCC` [5b{3, 2} y (100% y), 1-ethoxy-2-allyl-3-propoxy-benzene] was tested, and the mortality at 0.25 % ([2]; read-out: Mortality (%) N = 3 × 10, Table 7, second lots and purified isomers) was 0%, the pest or weed control at 0.25 % (T. ni moths [3]) was -6.4 ± 11.4% and the pest or weed control at 50 µg/cm2, 50 µg/cm2 [1, 7] was 74 ± 14%.
`CCCCOc1ccccc1OCCCC` [3a{4,4}, 1,2-Dibutoxy benzene] was tested, and the mortality at 0.25 % ([2]; read-out: mortality (%) (n = 3 × 10), Table 5) was 10%, the pest or weed control at 0.25 % (T. ni moths [4]; Table 5) was 19.6% and the pest or weed control at 50 µg/cm2, 50 µg/cm2 [1, 5] was 56.4 ± 13.8%.
With `CCCOc1cccc(O)c1` [2b{3}, 3-Propoxy phenol] the pest or weed control at 50 µg/cm2, 50 µg/cm2 [1, 6] was 4 ± 20.4%.
Work on `CCOc1ccccc1OCC` [3a{2,2}, 1,2-Diethoxy benzene] yielded a pest or weed control at 50 µg/cm2, 50 µg/cm2 [1, 5] of -2.1%.
Compound `CCOc1cccc(O)c1` [2b{2}, 3-Ethoxy phenol] has a pest or weed control at 50 µg/cm2, 50 µg/cm2 [1, 6] of -18.7 ± 17.8%.
For `CC(C)CCOc1ccc(OCCC(C)C)cc1` [3c{5,5}, 1,4-Di-(3-methyl-butyloxy)benzene], the pest or weed control at 50 µg/cm2, 50 µg/cm2 [1, 8] was 44 ± 18.3%.
For `CCOc1ccc(OCC)cc1` [drawing 17], the Oviposition deterrency (T. ni moths [4]) was “strong (Strong oviposition deterrency, >50%)” and the Feeding deterrency ([1]; 50 μg/cm^2) was “strong (Strong feeding deterrency, >80%)”.
With `COc1ccccc1O` [1-hydroxy-2-methoxybenzene] the pest or weed control at 50 µg/cm2, 50 µg/cm2 [1, 5] was -7.5%.
With `CCCOc1ccc(OCCC)cc1` [3c{3,3}, 1,4-Dipropoxy benzene] the mortality at 0.25 % [2, 9] was 22.6%, the “% mortality” value [2] was 23% and the pest or weed control at 0.25 % (T. ni moths [4]; Table 3) was 11.8 ± 13.1%. The pest or weed control at 50 µg/cm2, 50 µg/cm2 [1, 8] was 96 ± 2.8%, the pest or weed control at 50 µg/cm2 [1] was 96% and the DC50 [1] was 20 μg/cm^2.
Compound `COc1ccccc1OC` [3a{1,1}, 1,2-Dimethoxy benzene] has a pest or weed control at 50 µg/cm2, 50 µg/cm2 ([1]; read-out: FD (%), mean ± SE (n = 25)) of 26 ± 17.6%.
In the case of `CCCOc1ccc(OCCC)cc1` [drawing 22], the Oviposition deterrency (T. ni moths [4]) is reported as “weak (weak, >10%)” and the Feeding deterrency ([1]; 50 μg/cm^2) is reported as “strong (Strong feeding deterrency, >80%)”.
For `COc1ccc(OC)cc1` [3c{1,1}, 1,4-Dimethoxy benzene], the pest or weed control at 50 µg/cm2, 50 µg/cm2 [1, 8] was 9.9 ± 18%.
In the case of `COc1ccc(O)cc1` [2c{1}, 4-Methoxy phenol], the “FD (%), mean ± SE (n = 25)” value ([1]; Table 3, 1,4-dialkoxybenzenes, feeding deterrence at 50 μg/cm^2) is reported as “feeding stimulants” and the pest or weed control at 50 µg/cm2, 50 µg/cm2 [1, 8] is reported as -26.5 ± 18.6%.
For `C=CCOc1ccc(OCC=C)cc1` [3c{6,6}, 1,4-Diallyloxy benzene], the mortality at 0.25 % [2, 9] was 16%, the “% mortality” value [2] was 16% and the pest or weed control at 0.25 % (T. ni moths [4]; Table 3) was 14.1 ± 13.1%. For the same compound, the pest or weed control at 50 µg/cm2, 50 µg/cm2 [1, 8] was 96.9 ± 3.6%, the pest or weed control at 50 µg/cm2 [1] was 97% and the DC50 [1] was 24 μg/cm^2.
For `C=CCOc1ccc(OCC=C)cc1` [drawing 23], the Oviposition deterrency (T. ni moths [4]) was “weak (weak, >10%)” and the Feeding deterrency ([1]; 50 μg/cm^2) was “strong (Strong feeding deterrency, >80%)”.
In the case of `CCOc1cccc(OCC)c1` [3b{2,2}, 1,3-Diethoxy benzene], the mortality at 0.25 % ([2]; read-out: mortality (%) (n = 3 × 10), Table 4) is reported as 36.7%, the “% mortality” value [2] is reported as 37% and the pest or weed control at 0.25 % (T. ni moths [4]; Table 4) is reported as 3.4%. For the same compound, the pest or weed control at 50 µg/cm2, 50 µg/cm2 [1, 6] was 89.4 ± 8.3%, the pest or weed control at 50 µg/cm2 [1] was 89% and the DC50 [1] was 29 μg/cm^2.
For `C=CCOc1ccc(OCCCC)cc1` [drawing 24], the Oviposition deterrency (T. ni moths [4]) was “weak (weak, >10%)” and the Feeding deterrency ([1]; 50 μg/cm^2) was “strong (Strong feeding deterrency, >80%)”.
`C=CCc1c(OC)cccc1OCCC` [5b{3, 1} y (100% y), 1-methoxy-2-allyl-3-propoxy-benzene] gave a pest or weed control at 0.25 % (T. ni moths [3]) of 17 ± 14% and a pest or weed control at 50 µg/cm2, 50 µg/cm2 [1, 7] of 100%.
